In PubChem BioAssay (NCI):
“And” between values parts separate entries of the source, which are not always exact repeats. Equal values may be shown once.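 Cells were grown in 96-well plates and exposed to each compound for 48 hours at five concentrations; endpoints were interpolated linearly between bracketing concentrations, or set to the highest concentration if not reached. Abbreviation: GI50, concentration required for 50% inhibition of growth. TGI is the concentration that stops growth completely.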

Tests used:
Assay in all cases: inhibition of tumour cell growth, NCI panel, 48 h
[1] = test system: NCI-H522 lung
[2] = test system: RXF 393 renal
[3] = test system: HCC-2998 colon
[4] = test system: U251 CNS
[5] = test system: OVCAR-5 ovarian
[6] = test system: HOP-92 NSCLC
[7] = test system: NCI/ADR-RES ovarian
[8] = test system: SW-620 colon
[9] = test system: SF-268 CNS
[10] = test system: HOP-62 NSCLC

| Structure (SMILES) | GI50 [1] [µM] | TGI [1] [µM] | GI50 [2] [µM] | TGI [2] [µM] | GI50 [3] [µM] | TGI [3] [µM] | GI50 [4] [µM] | TGI [4] [µM] | GI50 [5] [µM] | TGI [5] [µM] | GI50 [6] [µM] | TGI [6] [µM] | GI50 [7] [µM] | TGI [7] [µM] | GI50 [8] [µM] | TGI [8] [µM] | GI50 [9] | TGI [9] | GI50 [10] [µM] | TGI [10] |
| --- | --- | --- | --- | --- | --- | --- | --- | --- | --- | --- | --- | --- | --- | --- | --- | --- | --- | --- | --- | --- |
| CCCCCCCCCCN1CCC(N2CCCCC2)CC1 | 1.93 | 5.54 | 2.01 | 7.15 | 2.21 | 5.9 | 1.51 | 4.47 | 3.74 | 14.4 | 0.763 | 8.5 | 6.76 | 20.2 | 1.92 | 3.97 | 4.1 µM | 17 µM | 2.38 | 7.64 µM |
| C/C(=N\NC(=S)N1CC2CCC(CC2)C1)c1ccccn1 | 0.195 | 1.27 | 0.226 | 1.3 | 0.171 | 1.8 | 0.0473 | 1.19 | 0.0949 | 2.73 | 0.0255 | 0.793 | < 0.0177 | 2.43 | 0.033 | 1.57 | 0.185 µM | 2.4 µM | 0.142 | 1.69 µM |
| CCN(CC)CCNC(=O)c1ccc(C)c(OCc2ccccc2)c1[N+](=O)[O-] | – | 76.5 | – | > 91.3 | – | > 69.1 | – | > 84.1 | – | 81.3 | – | 83.2 | – | > 62.8 | – | 44 | – | > 100 µM | – | > 75.4 µM |
| C[C@H]1CCC/C=C/[C@@H]2C[C@H](O)C[C@H]2[C@H](O)[C@@H](SCC(O)CO)CC(=O)O1 (stereo partly specified) | 95.6 | > 100 | 4.42 | 20.1 | 14.3 | 42.2 | 42.3 | > 100 | 41.1 | > 100 | 37.7 | > 100 | > 100 | > 100 | 30.9 | > 100 | 10.9 µM | > 100 µM | 33.2 | > 100 µM |
| O=C(CCCN1CCC2(CC1)C(=NC1CCCCC1)NC(=O)N2c1ccccc1)c1ccc(F)cc1 | – | 51.3 | – | 89 | – | 37.7 | – | 81.1 | – | 55 | – | 37.8 | – | 51.4 | – | > 100 | – | 40.1 µM | – | 37.5 µM |
| CCCCCCCCCCCCOC1C(C(CC(=O)NCCN2CCCC2)NS(=O)(=O)c2cc(Cl)cc(Cl)c2)OC2OC(C)(C)OC21 (stereo unspecified) | 2.11 | 3.98 | 2.2 | 4.72 | 2.14 | 4.56 | 1.92 | 3.58 | 2.17 | 4.34 | 1.49 | 3 | 2.04 | 4.08 | 1.98 | 3.63 | 1.95 µM and 1.97 µM | 3.96 µM and 3.84 µM | 1.74 | 3.39 µM |
| COc1ccc2c(c1)C(C)Cc1c(ncnc1-n1cnc3cc(C)ccc31)N2C (stereo unspecified) | 0.0544 | 0.325 | 0.0305 | 25.3 | 0.329 | 13.3 | 0.148 | 11.6 | 0.294 | 26.8 | 0.329 | 15.9 | 0.0575 | 59.5 | 0.087 | 16.1 | 0.222 µM | 15 µM | 0.0707 | 18.2 µM |
| O=C(Nc1ccc(Cl)c(Cl)c1)Nc1ccccc1O | 2.65 | 15.5 | 15 | 35.6 | 5.56 | 19.6 | 6.41 | 25.3 | 15.7 | 53.2 | 6.46 | 27.3 | 3.59 | 28.5 | 5.42 | 19.5 | 9.59 µM | 27.4 µM | 10.6 | 24.1 µM |
| COC(C(=O)[C@@H](O)[C@@H](C)O)[C@@H]1Cc2cc3cc(O[C@H]4C[C@@H](O[C@H]5C[C@@H](O)[C@H](O)C(C)O5)[C@H](O)C(C)O4)c(C)c(O)c3c(O)c2C(=O)[C@H]1O[C@H]1C[C@@H](O[C@H]2C[C@@H](O[C@H]3C[C@@H](O)[C@H](OC)C(C)O3)[C@@H](O)C(C)O2)[C@H](O)C(C)O1 (stereo partly specified) | 0.0101 | 0.0569 | 0.034 | 0.139 | 0.0293 | 0.114 | – | > 33.3 | – | > 33.3 | 0.0122 | 1.27 | 6.93 | > 33.3 | 0.0197 | > 33.3 | 0.0307 µM | > 33.3 µM | 0.0151 | 0.717 µM |
| O=c1[nH]c(=O)n([C@H]2CCCO2)cc1F | > 2650 | > 5000 | 1060 | > 5000 | 1010 | > 3020 | > 4570 | > 5000 | 2660 | > 5000 | – | > 5000 | 3030 | > 5000 | 1430 | > 5000 | 3000 µM | > 5000 µM | 2340 | 994 µM and > 4660 µM |
| CC[C@@]1(O)C(=O)OCc2c1cc1n(c2=O)Cc2c-1nc1cc(F)c(C)c3c1c2[C@@H](N)CC3 | < 0.01 | 0.531 | < 0.01 | 0.0254 | 0.0314 | 0.665 | < 0.01 | > 100 | 0.0201 | – | < 0.01 | 0.307 | < 0.01 | > 100 | < 0.01 | > 100 | < 0.01 µM | 2.17 µM | < 0.01 | 0.159 µM |
| Cc1cc(C)n(-c2nnc3n2N=C(c2ccc(-c4ccccc4)cc2)CS3)n1 | 2.95 | 12.9 | 2.08 | 6.51 | 5.14 | > 100 | 3.4 | > 100 | 5.3 | > 100 | 1.38 | 5.13 | 3.09 | > 100 | 3.41 | > 100 | 3.96 µM | > 100 µM | 6.17 | > 100 µM |
| COC(=O)c1cc(/C=C/c2ccc(S(N)(=O)=O)cc2)ccc1O | 20.2 | 69.6 | 43.4 | > 100 | 18 | 39.7 | 18.8 | > 100 | 59.2 | > 100 | 25.7 | > 100 | 59.2 | > 100 | 25.7 | > 100 | 37.3 µM | > 100 µM | 41.7 | > 100 µM |
| Cc1cc2c(nn1)-c1ccccc1C2=O | – | > 10 | – | > 10 | – | > 10 | – | > 10 | – | > 10 | – | > 10 | – | > 10 | – | > 10 | – | > 10 µM | – | > 10 µM |
| S=C1SC2=Nc3ccccc3CN2C2=NCCN12 | 27.7 | > 100 | 23.3 | 80.4 | > 100 | > 100 | 39.2 | > 100 | > 100 | > 100 | > 100 | > 100 | > 100 | > 100 | 39.8 | > 100 | > 100 µM | > 100 µM | > 100 | > 100 µM |
